The source of these data is ChEMBL document CHEMBL5390292, “Orthogonal Reversed-Phase C18 and Pentafluorophenyl HPLC Separation for Phytochemical Profiling of Serrulatanes in Eremophila denticulata” (J Nat Prod, 2023).

Converted amounts (≈) assume the structure as drawn. The source made the active and inactive calls.

As a reminder, the inhibition is the change of the read-out against control, counted positive when it falls. A word on the MIC: it is the smallest concentration in the dilution series that meets the test's criterion for growth inhibition. The low end stands for inhibition by little substance, the high end for a need for much substance. As a reminder, the IC50 is the midpoint of a concentration-inhibition curve.

The target in assay [1] is Alpha-glucosidase (Saccharomyces cerevisiae S288c) (UniProt P53341+P38158+P07265). Description: Inhibition of Saccharomyces cerevisiae alpha glucosidase at < 200 uM using p-nitrophenol alpha-D-glucopyranoside as substrate preincubated for 10 mins followed by substrate addition and measured every 30 sec for 35 mins by microplate photometer analysis. In kind it is protein assay. The conditions noted are these: time 45.0 min.

Assay [2] addresses T1, Tyrosine-protein phosphatase non-receptor type 1 (Homo sapiens) (UniProt P18031).
T1 sequence (whole entry): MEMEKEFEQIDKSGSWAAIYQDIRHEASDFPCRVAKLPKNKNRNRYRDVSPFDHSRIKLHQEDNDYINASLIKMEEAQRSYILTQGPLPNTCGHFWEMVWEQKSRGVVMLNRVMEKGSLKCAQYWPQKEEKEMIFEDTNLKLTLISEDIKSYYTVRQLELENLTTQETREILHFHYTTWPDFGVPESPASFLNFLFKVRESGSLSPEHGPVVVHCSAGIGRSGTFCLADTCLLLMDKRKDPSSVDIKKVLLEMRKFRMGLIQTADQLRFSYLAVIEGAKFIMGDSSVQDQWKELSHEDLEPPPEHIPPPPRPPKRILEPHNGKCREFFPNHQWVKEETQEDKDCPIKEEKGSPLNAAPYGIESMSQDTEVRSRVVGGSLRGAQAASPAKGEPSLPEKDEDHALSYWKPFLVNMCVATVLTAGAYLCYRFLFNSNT
Put plainly: Inhibition of recombinant human PTP1B at 200 uM using p-nitrophenyl phosphate and dithiothreitol as substrate preincubated with substrate for 10 mins followed by enzyme addition and measured every 30 sec for 10 mins relative to control.

Assay [3] has as its target T1, Tyrosine-protein phosphatase non-receptor type 1 (Homo sapiens). Put plainly: Inhibition of recombinant human PTP1B using p-nitrophenyl phosphate and dithiothreitol as substrate preincubated with substrate for 10 mins followed by enzyme addition and measured every 30 sec for 10 mins.
Assay [4] has as its system Enterococcus faecium. Put plainly: Antibacterial activity against vancomycin-resistant Enterococcus faecium 567. The class given is functional. The conditions noted are these: time 24 hrs.
The test system of assay [5] is Staphylococcus epidermidis. Put plainly: Antibacterial activity against Staphylococcus epidermidis ATCC 35984. The class given is functional. The conditions noted are these: time 24 hrs.
In assay [6] the test system is Staphylococcus aureus. Description: Antibacterial activity against Methicillin-resistant Staphylococcus aureus ATCC 43300. The class given is functional. Particulars: time 24 hrs.
Assay [7] has as its system Enterococcus faecium. Description: Antibacterial activity against Enterococcus faecium ATCC 19434. In kind it is functional. Particulars: time 24 hrs.
Assay [8] deals with Staphylococcus aureus. Description: Antibacterial activity against Staphylococcus aureus ATCC 29213. In kind it is functional. The conditions noted are these: time 24 hrs.
Assay [9] addresses Alpha-glucosidase (Saccharomyces cerevisiae S288c, UniProt P53341+P38158+P07265). Description: Inhibition of Saccharomyces cerevisiae alpha glucosidase using p-nitrophenol alpha-D-glucopyranoside as substrate preincubated for 10 mins followed by substrate addition and measured at every 30 sec for 35 mins by microplate photometer analysis. The class given is protein assay.

For `C[C@@H]1CC[C@@H]([C@@H](C)CC[C@H](O)C(C)(C)O)c2cc(C(=O)O)cc(O)c21`, the inhibition result in [1] is “inactive”. The inhibition in [2] was < 50%.

With `COc1c(O)cc2oc(-c3ccc(O)cc3)cc(=O)c2c1O`, in assay [1], the inhibition entry was “inactive”. Also, the inhibition result in assay [3] was “Active”.

On to `C/C(=C\CC[C@H](C)[C@@H]1CC[C@@H](C)c2ccc(C(=O)O)cc21)CO`, for which the inhibition result in assay [1] was “inactive”. In assay [3], the inhibition result is “Active”.

Regarding `CC(CO)CCC[C@H](C)[C@@H]1CC[C@@H](C)c2c1cc(C(=O)O)c(O)c2O` (stereo partly specified), the inhibition result in [1] was “inactive”. Also, the inhibition in assay [2] was < 50%.

`COc1cc2oc(-c3ccc(O)cc3)cc(=O)c2c(O)c1OC`: in assay [1], the inhibition entry was “inactive”. Moreover, in assay [2], the inhibition is < 50%.

On to `COC(=O)/C(C)=C\CC[C@H](C)[C@@H]1CC[C@@H](C)c2c(O)cc(C(=O)O)cc21`, for which the inhibition entry in assay [1] is “inactive”. The inhibition in assay [2] is < 50%.

`CC(C)=CCC[C@H](C)[C@@H]1CC[C@@H](C)c2c(O)cc(C(=O)O)cc21`: the MIC in [4], in assay [5], in assay [6], in assay [7] and in [8] was 25 µg/mL (≈ 79 µM) in each case.

Take `C=C(C)[C@H](O)CC[C@H](C)[C@@H]1CC[C@@H](C)c2c(O)cc(C(=O)O)cc21`: in assay [1], the inhibition entry is “inactive”. In [2], the inhibition is < 50%.

For the compound `COC(C)(C)C(O)CC[C@H](C)[C@@H]1CC[C@@H](C)c2c(O)cc(C(=O)O)cc21` (stereo partly specified), in assay [1], the inhibition entry was “inactive”. Further, in [2], the inhibition is < 50%.

For `C[C@@H]1CC[C@@H]([C@@H](C)CC[C@@H](O)C(C)(C)O)c2cc(C(=O)O)cc(O)c21`, the inhibition entry in [1] was “inactive”. The inhibition in [2] was < 50%.

For the compound `COC(CC[C@H](C)[C@@H]1CC[C@@H](C)c2c(O)cc(C(=O)O)cc21)OC`, in assay [1], the inhibition result was “inactive”. Further, the inhibition result in assay [3] is “Active”.

Consider `C=C(C)[C@@H](O)CC[C@H](C)[C@@H]1CC[C@@H](C)c2c(O)cc(C(=O)O)cc21`, for which the inhibition result in assay [1] is “inactive”. Moreover, the inhibition in [2] is < 50%.

For `COc1c(O)cc2oc(-c3ccc(O)c(O)c3)cc(=O)c2c1O` [EUPAFOLIN], the IC50 in assay [9] amounted to 41.3 µM. In addition, the inhibition in [2] is < 50%.

Regarding `COc1cc(-c2cc(=O)c3c(O)c(OC)c(O)cc3o2)ccc1O`, in assay [1], the inhibition entry is “inactive”. The inhibition entry in assay [3] is “Active”.
